Data: patent publication US7531539B2, “Pyrrolotriazine kinase inhibitors” (Bristol-Myers Squibb Company, priority 2006, dated 2009)

Legend:
[1] = biological target: Casein Kinase 2 A1 kinase (Homo sapiens, UniProt P68400); assay: CK2A1 kinase assay (33P, TCA precipitation); format: biochemical
Method: (§1) Incubation mixtures employed for the Casein Kinase 2 A1 kinase assay contain Casecin Kinase 2 A1 kinase, a synthetic peptide substrate, ATP, ATP-γ-^33 P and a Hepes buffer containing Mg^2+, NaCl, DTT, and Brij-35. Reactions were incubated for 60 minutes at 30° C. and stopped by the addition of trichloroacetic acid (TCA) to a final concentration 8%. TCA precipitates were collected onto GF/C unifilter plates using a Filtermate universal harvester and the filters are quantitated using a TopCount 96/384-well liquid scintillation counter. Dose response curves were generated to determine the concentration required to inhibit 50% of kinase activity (IC50). Compounds were dissolved at 10 mM in dimethyl sulfoxide (DMSO) and evaluated at ten concentrations, each in duplicate. The final concentration of DMSO in the assay is 1.7%. IC50 values were derived by non-linear regression.

[2] = biological target: Casein Kinase 2 A2 kinase (Homo sapiens, UniProt P19784); assay: CK2A2 kinase assay (33P, TCA precipitation); format: biochemical
Method: as §1, with “A2” for “A1”, “Casein” for “Casecin”, “ATP-γ^33P” for “ATP-γ-^33 P”, “Mg^++,” for “Mg^2+,”, “(IC^50).” for “(IC50).”

Casein Kinase 2 A1 kinase, sequence (P68400 whole entry): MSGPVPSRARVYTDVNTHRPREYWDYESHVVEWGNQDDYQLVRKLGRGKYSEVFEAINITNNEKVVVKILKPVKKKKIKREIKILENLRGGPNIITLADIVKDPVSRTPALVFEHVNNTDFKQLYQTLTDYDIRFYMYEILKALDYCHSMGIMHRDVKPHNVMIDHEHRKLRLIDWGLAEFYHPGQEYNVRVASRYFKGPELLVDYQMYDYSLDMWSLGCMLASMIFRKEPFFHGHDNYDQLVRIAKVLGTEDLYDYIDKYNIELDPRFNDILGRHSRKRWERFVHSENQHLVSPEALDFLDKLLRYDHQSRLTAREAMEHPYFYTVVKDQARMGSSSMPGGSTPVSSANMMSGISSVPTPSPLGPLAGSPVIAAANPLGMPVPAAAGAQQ
Casein Kinase 2 A2 kinase, sequence (P19784 whole entry): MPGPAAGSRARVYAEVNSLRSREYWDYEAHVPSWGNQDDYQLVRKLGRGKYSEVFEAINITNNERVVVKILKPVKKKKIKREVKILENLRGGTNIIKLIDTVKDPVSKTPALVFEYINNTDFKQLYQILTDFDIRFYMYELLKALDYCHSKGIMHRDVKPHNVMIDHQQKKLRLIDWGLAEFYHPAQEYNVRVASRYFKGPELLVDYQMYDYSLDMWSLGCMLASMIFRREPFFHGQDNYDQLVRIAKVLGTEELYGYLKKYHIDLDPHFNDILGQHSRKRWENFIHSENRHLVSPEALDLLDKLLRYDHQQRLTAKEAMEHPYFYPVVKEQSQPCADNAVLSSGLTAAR

Row | Compound | IC50 [1] [nM] | IC50 [2] [nM]
1 | Cc1cc(Nc2nc(N3Cc4ccccc4C3)nn3cccc23)[nH]n1 [Example 201, 2-(isoindolin-2-yl)-N-(3-methyl-1,2-f][1,2,4]triazin-4-amine] | 159 | 25
2 | Cc1cc(Nc2nc(N3CCCC3c3cccnc3)nn3cccc23)[nH]n1 (centres unmarked) [Example 209, N-(3-methyl-1H-pyrazol-5-yl)-2-(2-(pyridin-3-yl)pyrrolidin-1-yl)pyrrolo[1,2-f][1,2,4]triazin-4-amine] | 6070 | 1100
3 | COc1ncccc1C1CCN(c2nc(Nc3cc(C)n[nH]3)c3cccn3n2)C1 (centres unmarked) [Example 213, 2-(3-(2-methoxypyridin-3-yl)pyrrolidin-1-yl)-N-(3-methyl-1H-pyrazol-5-yl)pyrrolo[1,2-f][1,2,4]triazin-4-amine] | 349 | 43
4 | c1ccc([C@H]2C[C@@H]2c2cc(Nc3nc(N4CCC(c5cccnc5)C4)nn4cccc34)[nH]n2)cc1 (stereo partly drawn) [Example 197, N-(3-((1S,2S)-2-phenylcyclopropyl)-1H-pyrazol-5-yl)-2-(3-(pyridin-3-yl)pyrrolidin-1-yl)pyrrolo[1,2-f][1,2,4]triazin-4-amine] | 11300 | 1020
5 | COc1ccc(C2CCN(c3nc(Nc4cc(C)n[nH]4)c4cccn4n3)C2)cn1 (centres unmarked) [Example 212, (3-(6-Methoxypyridin-3-yl)pyrrolidin-1-yl)-N-(3-methyl-1H-pyrazol-5-yl)pyrrolo[1,2-f][1,2,4]triazin-4-amine] | 1380 | 99
6 | CC1C[C@@H]1c1cc(Nc2nc(N3CCC(c4cccnc4)C3)nn3cccc23)[nH]n1 (stereo partly drawn) [Example 182, N-(3-((1S,2S)-2-methylcyclopropyl)-1H-pyrazol-5-yl)-2-(3-(pyridin-3-yl)pyrrolidin-1-yl)pyrrolo[1,2-f][1,2,4]triazin-4-amine] | 131 | 13
7 | c1ccc(-c2cc(Nc3nc(N4CCC(c5cccnc5)C4)nn4cccc34)[nH]n2)cc1 (centres unmarked) [Example 174, N-(3-phenyl-1H-pyrazol-5-yl)-2-(3-(pyridin-3-yl)pyrrolidin-1-yl)pyrrolo[1,2f][1,2,4]triazin-4-amine] | 670 | 91
8 | c1ccc(C2CCN(c3nc(Nc4cc(C5CC5)n[nH]4)c4cccn4n3)C2)cc1 (centres unmarked) [Example 184, N-(3-cyclopropyl-1H-pyrazol-5-yl)-2-(3-phenylpyrrolidin-1-yl)pyrrolo[1,2-f][1,2,4]triazin-4-amine] | 177 | 14
9 | Cc1cc(Nc2nc(N3CCC(CC(=O)O)C3)nn3cccc23)[nH]n1 (centres unmarked) [Example 199, 2-(1-(4-(3-methyl-1H-pyrazol-5-ylamino)pyrrolo[1,2-f][1,2,4]triazin-2-yl)pyrrolidin-3-yl)acetic acid] | 2350 | 379
10 | 2-(3-(2-methoxyphenyl)pyrrolidin-1-yl)-N-(3-methyl-1H-pyrazol-5-yl)pylTolo[1,2-f][1,2,4]triazin-4-amine [Example 176] | 872 | 89
